Experimental findings from patent publication US8318504B2, “MRP2 efflux pathway prognostic method” (priority 2009, dated 2012) are described below.

One experiment addresses T1, ABCB11 (Homo sapiens, UniProt O95342).
T1 construct: His tag (inferred from the anti-his probe used on the Western blot); made in house; host or cells: Sf21 insect cells, baculovirus (gift from Thompson); plasma membrane vesicles
Put plainly: CLF inhibition of TC transport into ABCB11 containing Sf21 membrane vesicles. The following applies: ATP-dependent transport, read-out: concentration of CLF at which half maximal TC transport was observed. The experiment is classed as biochemical. As for the experimental part: FIGS. 5A and 5B show CLF inhibition of DNP-SG and TC transport into ABCC2 (A) and ABCB11 (B) protein containing Sf21 membrane vesicles respectively. The values are expressed as a percentage of maximal ATP-dependent transport. Significance was tested using two-sided Student's t-test: *P<0.05 for transport in the presence vs. absence of inhibitor.
The production of recombinant baculovirus was as described by de Waart et al. [Liver Int 2006 April; 26(3):362-368]. ABCC3 and ABCG2-recombinant baculovirus were a kind gift from Borst [Breedveld P. et al., Cancer Res 2004 Aug. 15; 64(16):5804-5811 and Borst P. et al., J Biol Chem 2001 Dec. 7; 276(49):46400-46407.]. ABCB11-recombinant baculovirus was a kind gift from Thompson [Thompson R J et al., Gastroenterology 2002 November; 123(5):1649-1658]. Sf21 cells grown at 27° C. were infected with ABCB11, ABCC2, ABCC3 and ABCG2-cDNA containing baculovirus. Cells were harvested at 2-4 days after infection. […]
Transport studies with membrane vesicles were performed using the rapid filtration technique as described by Heijn M et al. [Am J Physiol 1992 January; 262(1 Pt 1):C104-C110]. Radiolabel was measured with a scintillation counter. […] Samples were pipetted in 96-well plates (Kartell, Noviglio, Italy) and the amount CLF quantitated by measurement of fluorescence at λexe 485 nm and λcm 520 nm using a NovoStar (BMG-labtech, Offenburg, Germany).

The next experiment has as its target T2, OATP2B1 (Homo sapiens, UniProt O94956).
T2 construct: expressed in transfected cells; host or cells: CHO cells (stably transfected; Treiber et al. 2007)
T2 sequence (O94956 1-709): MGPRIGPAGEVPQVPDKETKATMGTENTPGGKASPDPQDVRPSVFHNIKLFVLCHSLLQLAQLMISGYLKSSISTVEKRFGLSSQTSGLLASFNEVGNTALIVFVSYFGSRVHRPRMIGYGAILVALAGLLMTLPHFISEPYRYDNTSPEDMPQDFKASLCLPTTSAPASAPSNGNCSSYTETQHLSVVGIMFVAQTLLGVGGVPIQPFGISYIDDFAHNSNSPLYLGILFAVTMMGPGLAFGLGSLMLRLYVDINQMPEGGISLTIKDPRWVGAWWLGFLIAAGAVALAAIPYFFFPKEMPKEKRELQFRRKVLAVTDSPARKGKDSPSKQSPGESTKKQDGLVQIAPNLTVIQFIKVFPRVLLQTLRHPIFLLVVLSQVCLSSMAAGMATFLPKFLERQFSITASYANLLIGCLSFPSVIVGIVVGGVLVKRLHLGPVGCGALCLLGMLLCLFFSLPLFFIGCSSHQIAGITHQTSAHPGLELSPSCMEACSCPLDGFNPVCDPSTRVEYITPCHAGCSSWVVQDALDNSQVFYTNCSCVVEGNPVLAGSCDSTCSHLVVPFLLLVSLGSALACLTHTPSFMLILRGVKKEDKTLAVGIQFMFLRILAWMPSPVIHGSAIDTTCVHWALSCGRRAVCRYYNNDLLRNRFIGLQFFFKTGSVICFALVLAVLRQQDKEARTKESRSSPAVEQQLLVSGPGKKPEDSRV
As to the kind of experiment: Uptake of CLF into CHO cells expressing OATP2B1. It counts as cell-based. The conditions noted are these: 1 μmol/L CLF, 1 or 5 minutes. As for the experimental part: cDNA for human NTCP [Hagenbuch et al., J Clin Invest 1994 March; 93(3): 1326-1331] was cut with EcoRV and HindI and the coding region ligated into pcDNA5/FRT (Invitrogen, Life-Technologies, Carlsbad, Calif.). CHO FlpIn cells (Invitrogen, Life-Technologies) were transfected with the resulting construct using Lipofectamine® 2000 (Invitrogen, Life-Technologies). Stably transfected cells were selected with 550 μg Hygromycin-B in HAM-F12 medium (Gibco, Invitrogen, Life-Technologies). Transfected cells were cloned with the limiting dilution method. […] To further characterize the cloned cells, immunofluorescence localization of NTCP using a polyclonal antibody against NTCP [Kullak-Ublick G et al., Gastroenterology 1997 October; 113(4):1295-1305] was performed as described by Huber R D et al. [Am J Physiol Cell Physiol 2007 February; 292(2):[…]-[…]]. CHO cells expressing OATP1B1, OATP1B3 and OATP2B1 were described previously [Treiber et al., DMD 35:1400-1407, 2007]. […] After complete solubilization, 1.5 ml was used to measure fluorescence in a Perkin-Elmer LS-5 luminescence-spectrometer set at λexe 486 nm (slit 10 nm) and λem 520 nm (slit 5 nm). Protein was determined with the bicinchoninic acid method using a kit from Interchim (Montfuçon, France). […]

T1 sequence (O95342 whole entry): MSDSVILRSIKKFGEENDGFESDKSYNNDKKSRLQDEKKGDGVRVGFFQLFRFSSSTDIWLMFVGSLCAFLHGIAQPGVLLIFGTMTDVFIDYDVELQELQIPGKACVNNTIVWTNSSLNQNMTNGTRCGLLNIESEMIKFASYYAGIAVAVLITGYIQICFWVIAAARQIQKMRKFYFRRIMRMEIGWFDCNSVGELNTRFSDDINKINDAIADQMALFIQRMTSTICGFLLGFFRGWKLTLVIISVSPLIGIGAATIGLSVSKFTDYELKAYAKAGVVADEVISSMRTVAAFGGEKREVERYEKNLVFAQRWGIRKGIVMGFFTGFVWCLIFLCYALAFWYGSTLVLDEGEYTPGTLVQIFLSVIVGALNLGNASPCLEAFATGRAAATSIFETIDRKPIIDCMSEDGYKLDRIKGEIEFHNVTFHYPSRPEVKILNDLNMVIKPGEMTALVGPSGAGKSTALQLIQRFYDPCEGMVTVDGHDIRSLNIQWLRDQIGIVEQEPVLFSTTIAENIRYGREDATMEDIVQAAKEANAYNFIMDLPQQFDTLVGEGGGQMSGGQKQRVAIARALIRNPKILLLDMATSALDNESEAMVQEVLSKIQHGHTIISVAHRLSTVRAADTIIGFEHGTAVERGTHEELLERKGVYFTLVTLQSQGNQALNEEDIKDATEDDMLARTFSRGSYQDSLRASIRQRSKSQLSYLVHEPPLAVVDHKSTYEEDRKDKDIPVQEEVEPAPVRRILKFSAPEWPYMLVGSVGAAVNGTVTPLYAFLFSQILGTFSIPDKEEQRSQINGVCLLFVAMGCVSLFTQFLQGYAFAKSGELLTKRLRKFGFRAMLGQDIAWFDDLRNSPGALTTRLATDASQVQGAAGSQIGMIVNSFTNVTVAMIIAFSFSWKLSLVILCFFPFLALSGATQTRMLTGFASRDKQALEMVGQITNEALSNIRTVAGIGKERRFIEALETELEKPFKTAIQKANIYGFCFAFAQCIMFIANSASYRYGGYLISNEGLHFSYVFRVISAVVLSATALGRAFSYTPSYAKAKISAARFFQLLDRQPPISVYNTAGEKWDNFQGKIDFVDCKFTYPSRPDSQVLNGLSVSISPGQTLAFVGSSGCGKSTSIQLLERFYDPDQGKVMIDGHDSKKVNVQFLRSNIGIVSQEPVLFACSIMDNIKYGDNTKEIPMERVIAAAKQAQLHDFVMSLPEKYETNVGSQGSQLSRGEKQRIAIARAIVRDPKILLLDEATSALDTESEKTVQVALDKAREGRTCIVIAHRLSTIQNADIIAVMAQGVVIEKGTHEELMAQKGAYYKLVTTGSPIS

On to `CC(CCC(=O)NC(CCCCNC(=S)Nc1ccc(-c2c3ccc(=O)cc-3oc3cc(O)ccc23)c(C(=O)O)c1)C(=O)O)C1CCC2C3C(O)CC4CC(O)CCC4(C)C3CC(O)C12C` (centres unmarked) [CLF, cholyl lysyl fluorescein], for which, on ABCB11, the IC50 was approximately 10 µM. Besides, on OATP2B1, the “uptake of CLF into OATP2B1 cells” value was “no uptake”.
